From patent publication US20230167088A1, “1-PYRAZINYLPYRAZOLYL-3-OXYALKYL ACIDS AND THEIR DERIVATIVES, AND THEIR USE FOR CONTROL OF UNDESIRED PLANT GROWTH” (BAYER AKTIENGESELLSCHAFT, priority 2020, published 2023)

Assays:
[1] = test system: ALOMY; assay: Herbicidal post-emergence action 1a (greenhouse pots, visual rating); assay type: in vivo, Alopecurus myosuroides; settings: rated visually about 3 weeks after treatment, 100% = plants have died, 0% = like control plants
Procedure, shortened: (§1)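 Weeds and crops sown in sandy loam in greenhouse pots were sprayed post-emergence at the one-leaf stage (2–3 weeks after sowing) with WP or EC formulations plus 0.5% additive at 600 l/ha water, 320 and/or 80 g/ha. About 3 weeks later damage was rated visually against untreated controls (0% = no effect, 100% = dead).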

[2] = test system: AVEFA; assay: as above; assay type: in vivo, Avena fatua; settings: rated visually about 3 weeks after treatment, 100% = plants have died, 0% = like control plants
Procedure, shortened: as §1

[3] = test system: ECHCG; assay: as above; assay type: in vivo, Echinochloa crus-galli; settings: rated visually about 3 weeks after treatment, 100% = plants have died, 0% = like control plants
Procedure, shortened: as §1

[4] = test system: LOLRI; assay: as above; assay type: in vivo, Lolium rigidum; settings: rated visually about 3 weeks after treatment, 100% = plants have died, 0% = like control plants
Procedure, shortened: as §1

[5] = test system: SETVI; assay: as above; assay type: in vivo, Setaria viridis; settings: rated visually about 3 weeks after treatment, 100% = plants have died, 0% = like control plants
Procedure, shortened: as §1

[6] = test system: ABUTH; assay: as above; assay type: in vivo, Abutilon theophrasti; settings: visual rating about 3 weeks after treatment
Procedure, shortened: as §1

[7] = test system: AMARE; assay: as above; assay type: in vivo, Amaranthus retroflexus; settings: visual rating about 3 weeks after treatment
Procedure, shortened: as §1

[8] = test system: PHBPU; assay: as above; assay type: in vivo, Pharbitis purpurea; settings: visual rating about 3 weeks after treatment
Procedure, shortened: as §1

[9] = test system: POLCO; assay: as above; assay type: in vivo, Polygonum convolvulus; settings: visual rating about 3 weeks after treatment
Procedure, shortened: as §1

[10] = test system: VERPE; assay: as above; assay type: in vivo, Veronica persica; settings: visual rating about 3 weeks after treatment
Procedure, shortened: as §1

[11] = test system: ALOMY; assay: Herbicidal pre-emergence action 2a (greenhouse pots, visual scoring); assay type: in vivo, Alopecurus myosuroides; settings: dosage 320 g/ha, visual scoring after about 3 weeks
Procedure, shortened: (§2)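 Visual scoring after roughly 3 weeks, as percent effect relative to untreated pots (0% = like control, 100% = dead). Seeds were covered with soil, then the surface received aqueous WP/EC suspension or emulsion (0.5% additive, 600 l/ha) at 320 and/or 80 g/ha.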

[12] = test system: AVEFA; assay: as above; assay type: in vivo, Avena fatua; settings: dosage 320 g/ha, visual scoring after about 3 weeks
Procedure, shortened: as §2

[13] = test system: ECHCG; assay: as above; assay type: in vivo, Echinochloa crus-galli; settings: dosage 320 g/ha, visual scoring after about 3 weeks
Procedure, shortened: as §2

[14] = test system: LOLRI; assay: as above; assay type: in vivo, Lolium rigidum; settings: dosage 320 g/ha, visual scoring after about 3 weeks vs untreated controls
Procedure, shortened: as §2

[15] = test system: SETVI; assay: as above; assay type: in vivo, Setaria viridis; settings: dosage 320 g/ha, visual scoring after about 3 weeks vs untreated controls
Procedure, shortened: as §2

[16] = test system: ABUTH; assay: as above; assay type: in vivo, Abutilon theophrasti; settings: dosage 320 g/ha, visual scoring after about 3 weeks vs untreated controls
Excerpt: [table] a) Seeds of monocotyledonous and dicotyledonous weed plants and crop plants are placed in plastic or organic plant pots and covered with soil. The compounds of the invention, formulated in the form of wettable powders (WP) or as emulsion concentrates (EC), are then applied onto the surface of the covering soil as aqueous suspension or emulsion with addition of 0.5% additive at a water application rate of 600 1/ha (converted). After the treatment, the pots are placed in a greenhouse and kept under good growth conditions for the trial plants. After about 3 weeks, the effect of the preparations is scored visually in comparison with untreated controls as percentages. For example, 100% activity=the plants have died, 0% activity=like control plants. Tables B1 to B15 below show the effects of selected compounds of the general formula (I) according to Tables 1 and 2 on various harmful plants and an application rate corresponding to 320 g/ha and/or 80 g/ha, which were obtained by the experimental procedure mentioned above.

[17] = test system: AMARE; assay: as above; assay type: in vivo, Amaranthus retroflexus; settings: dosage 320 g/ha, visual scoring after about 3 weeks vs untreated controls
Procedure, shortened: as §2

[18] = test system: MATIN; assay: as above; assay type: in vivo, Matricaria inodora; settings: dosage 320 g/ha, visual scoring after about 3 weeks vs untreated controls
Procedure, shortened: as §2

[19] = test system: PHBPU; assay: as above; assay type: in vivo, Pharbitis purpurea; settings: dosage 320 g/ha, visual scoring after about 3 weeks vs untreated controls
Procedure, shortened: as §2

[20] = test system: POLCO; assay: as above; assay type: in vivo, Polygonum convolvulus; settings: dosage 320 g/ha, visual scoring after about 3 weeks vs untreated controls
Procedure, shortened: as §2

[21] = test system: VERPE; assay: as above; assay type: in vivo, Veronica persica; settings: dosage 320 g/ha, visual scoring after about 3 weeks vs untreated controls
Procedure, shortened: as §2

[22] = test system: MATIN; assay: Herbicidal post-emergence action 1a (greenhouse pots, visual rating); assay type: in vivo, Matricaria inodora; settings: visual rating about 3 weeks after treatment
Procedure, shortened: as §1

| SMILES | Post-emergence action against AVEFA in % ([2]; Dosage 320 g/ha) [%] | Post-emergence action against ECHCG in % ([3]; Dosage 320 g/ha) [%] | Post-emergence action against LOLRI in % ([4]; Dosage 320 g/ha) [%] | Post-emergence action against SETVI in % ([5]; Dosage 80 g/ha) [%] | Post-emergence action against SETVI in % ([5]; Dosage 320 g/ha) [%] | Post-emergence action against ABUTH in % ([6]; dosage 80 g/ha) [%] | Post-emergence action against ABUTH in % ([6]; dosage 320 g/ha) [%] | Post-emergence action against AMARE in % ([7]; dosage 320 g/ha) [%] | Post-emergence action against PHBPU in % ([8]; dosage 320 g/ha) [%] | Post-emergence action against POLCO in % ([9]; dosage 320 g/ha) [%] | Post-emergence action against VERPE in % ([10]; dosage 80 g/ha) [%] | Post-emergence action against VERPE in % ([10]; dosage 320 g/ha) [%] | Pre-emergence action against ALOMY in % [11] [%] | Pre-emergence action against AVEFA in % [12] [%] | Pre-emergence action against ECHCG in % [13] [%] | Pre-emergence action against LOLRI in % [14] [%] | Pre-emergence action against SETVI in % [15] [%] | Pre-emergence action against ABUTH in % [16] [%] | Pre-emergence action against AMARE in % [17] [%] | Pre-emergence action against MATIN in % [18] [%] | other results |
| --- | --- | --- | --- | --- | --- | --- | --- | --- | --- | --- | --- | --- | --- | --- | --- | --- | --- | --- | --- | --- | --- |
| CCOC(=O)[C@@H](C)Oc1nn(-c2cnccn2)c(-c2cncc(F)c2)c1Cl [Example I-98] | 80 | 80 | 90 | 80 | 80 | 80 | 80 | 80 | 90 | 80 | 80 | 80 | 90 | 80 | 100 | 90 | 100 | 90 | 100 | 90 | Post-emergence action against ALOMY in % ([1]; Dosage 80 g/ha): 80%; Post-emergence action against ALOMY in % ([1]; Dosage 320 g/ha): 80%; Post-emergence action against AVEFA in % ([2]; Dosage 80 g/ha): 80%; Post-emergence action against ECHCG in % ([3]; Dosage 80 g/ha): 80%; Post-emergence action against PHBPU in % ([8]; dosage 80 g/ha): 90%; Pre-emergence action against PHBPU in % [19]: 80%; Pre-emergence action against POLCO in % [20]: 90%; Pre-emergence action against VERPE in % [21]: 100% |
| COC(=O)[C@@H](C)Oc1nn(-c2cnccn2)c(-c2cncc(F)c2)c1Cl [Example I-95] | 90 | 90 | 90 | 90 | 90 | 90 | 90 | 90 | 90 | 90 | 90 | 90 | 100 | 90 | 100 | 100 | 100 | 90 | 100 | 100 | Post-emergence action against ALOMY in % ([1]; Dosage 80 g/ha): 100%; Post-emergence action against ALOMY in % ([1]; Dosage 320 g/ha): 100%; Post-emergence action against AVEFA in % ([2]; Dosage 80 g/ha): 80%; Post-emergence action against ECHCG in % ([3]; Dosage 80 g/ha): 90%; Post-emergence action against LOLRI in % ([4]; Dosage 80 g/ha): 90%; Post-emergence action against AMARE in % ([7]; dosage 80 g/ha): 90%; Post-emergence action against MATIN in % ([22]; dosage 80 g/ha): 80%; Post-emergence action against MATIN in % ([22]; dosage 320 g/ha): 90%; Post-emergence action against PHBPU in % ([8]; dosage 80 g/ha): 90%; Post-emergence action against POLCO in % ([9]; dosage 80 g/ha): 90%; Pre-emergence action against PHBPU in % [19]: 90%; Pre-emergence action against POLCO in % [20]: 100%; Pre-emergence action against VERPE in % [21]: 100% |
| CCOC(=O)COc1nn(-c2cnccn2)c(-c2cncc(F)c2)c1Cl [Example I-91] | 90 | 90 | 90 | 80 | 90 | 80 | 80 | 90 | 90 | 80 | 80 | 80 | 80 | 90 | 100 | 100 | 100 | 90 | 100 | 100 | Post-emergence action against AMARE in % ([7]; dosage 80 g/ha): 80%; Post-emergence action against POLCO in % ([9]; dosage 80 g/ha): 80%; Pre-emergence action against PHBPU in % [19]: 90%; Pre-emergence action against POLCO in % [20]: 90%; Pre-emergence action against VERPE in % [21]: 90% |
